From PubChem BioAssay (NCI)
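Grown in 96-well plates, cells were treated for 48 hours with each compound at five concentrations. Insufficient inhibition: endpoint recorded as highest concentration tested. GI50 is the concentration that inhibits growth by half. At the TGI there is no net growth.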

How the values were obtained:
Assay in all cases: inhibition of tumour cell growth, NCI panel, 48 h
SNB-19 CNS = test system: SNB-19 CNS
OVCAR-4 ovarian = test system: OVCAR-4 ovarian
RXF 393 renal = test system: RXF 393 renal
TK-10 renal = test system: TK-10 renal
IGROV1 ovarian = test system: IGROV1 ovarian
MALME-3M melanoma = test system: MALME-3M melanoma
HOP-62 NSCLC = test system: HOP-62 NSCLC
HL-60(TB) leukemia = test system: HL-60(TB) leukemia
KM12 colon = test system: KM12 colon
NCI-H23 lung = test system: NCI-H23 lung

COc1cc2c(cc1OCCCOc1cc3c(cc1OC)C(=O)N1CC(F)(F)C[C@H]1C=N3)N=C[C@@H]1CC(F)(F)CN1C2=O
GI50 (SNB-19 CNS): 0.446 µM | TGI (SNB-19 CNS): 18.3 µM | GI50 (OVCAR-4 ovarian): 3.45 µM | TGI (OVCAR-4 ovarian): 17.4 µM | GI50 (RXF 393 renal): 1.38 µM | TGI (RXF 393 renal): 2.87 µM | GI50 (TK-10 renal): 3.56 µM | TGI (TK-10 renal): 12.5 µM | GI50 (IGROV1 ovarian): 0.116 µM | TGI (IGROV1 ovarian): 2.33 µM | GI50 (MALME-3M melanoma): 1.27 µM | TGI (MALME-3M melanoma): 3.19 µM | GI50 (HOP-62 NSCLC): 0.206 µM | TGI (HOP-62 NSCLC): 2.59 µM | GI50 (HL-60(TB) leukemia): 0.0984 µM | TGI (HL-60(TB) leukemia): 2 µM | GI50 (KM12 colon): 2.37 µM | TGI (KM12 colon): 13.6 µM | GI50 (NCI-H23 lung): 0.492 µM | TGI (NCI-H23 lung): 9.86 µM

NCc1ccc(O)c(O)c1O
TGI (SNB-19 CNS): > 97.3 µM | TGI (OVCAR-4 ovarian): 41 µM | TGI (RXF 393 renal): > 81.1 µM | TGI (TK-10 renal): > 100 µM | TGI (IGROV1 ovarian): > 86.3 µM | TGI (MALME-3M melanoma): > 100 µM | TGI (HOP-62 NSCLC): > 73.9 µM | TGI (HL-60(TB) leukemia): 59.1 µM | TGI (KM12 colon): 49 µM | TGI (NCI-H23 lung): > 67.3 µM

CN(C)C=O.CN(C)C=O.CN1C(C(=O)Nc2ccccn2)=C([O-])c2ccccc2S1(=O)=O.CN1C(C(=O)Nc2ccccn2)=C([O-])c2ccccc2S1(=O)=O.[Cu+2]
TGI (SNB-19 CNS): 41.2 µM | TGI (OVCAR-4 ovarian): 78.7 µM | TGI (RXF 393 renal): 61.7 µM | TGI (TK-10 renal): > 100 µM | GI50 (IGROV1 ovarian): 36.3 µM | TGI (IGROV1 ovarian): > 100 µM | TGI (MALME-3M melanoma): > 100 µM | TGI (HOP-62 NSCLC): 78.8 µM | TGI (HL-60(TB) leukemia): > 100 µM | TGI (KM12 colon): > 100 µM | TGI (NCI-H23 lung): 57 µM

CCc1cc(C)cc2[n+]1CC=C2C
TGI (SNB-19 CNS): > 100 µM | TGI (OVCAR-4 ovarian): > 100 µM | TGI (RXF 393 renal): > 100 µM | TGI (TK-10 renal): > 100 µM | TGI (MALME-3M melanoma): > 100 µM | TGI (HOP-62 NSCLC): > 100 µM | TGI (HL-60(TB) leukemia): > 100 µM | TGI (KM12 colon): > 100 µM | TGI (NCI-H23 lung): > 100 µM

Cn1ncc2c(=O)[nH]c(-c3ccccc3)nc21
TGI (SNB-19 CNS): > 100 µM | TGI (OVCAR-4 ovarian): > 100 µM | TGI (RXF 393 renal): > 100 µM | TGI (TK-10 renal): > 100 µM | TGI (IGROV1 ovarian): > 100 µM | TGI (MALME-3M melanoma): > 100 µM | TGI (HL-60(TB) leukemia): > 100 µM | TGI (KM12 colon): > 100 µM | TGI (NCI-H23 lung): > 100 µM

O=C(O)\C=C/C=C/C=C/C=C/C(=O)O
TGI (SNB-19 CNS): > 100 µM | TGI (OVCAR-4 ovarian): > 100 µM | TGI (RXF 393 renal): > 100 µM | TGI (IGROV1 ovarian): > 100 µM | TGI (MALME-3M melanoma): > 100 µM | TGI (HOP-62 NSCLC): > 100 µM | TGI (HL-60(TB) leukemia): > 100 µM | TGI (KM12 colon): > 100 µM | TGI (NCI-H23 lung): > 100 µM

NC(CCCNc1ccc(O)cc1)C(=O)O (stereo not given)
TGI (SNB-19 CNS): > 100 µM | TGI (OVCAR-4 ovarian): 31.7 µM | TGI (RXF 393 renal): 63.6 µM | TGI (TK-10 renal): 97.7 µM | TGI (IGROV1 ovarian): 61.5 µM | TGI (MALME-3M melanoma): > 100 µM | TGI (HOP-62 NSCLC): > 100 µM | TGI (HL-60(TB) leukemia): 58.3 µM | TGI (KM12 colon): > 100 µM | TGI (NCI-H23 lung): > 100 µM

CC(C)C(C)C(O)C(O)C(C)C1CCC2C3COC(=O)C4CC(O)C(O)CC4(C)C3CCC12C (stereo not given)
TGI (SNB-19 CNS): > 100 µM | TGI (OVCAR-4 ovarian): > 100 µM | TGI (RXF 393 renal): 67.4 µM | TGI (TK-10 renal): > 100 µM | TGI (IGROV1 ovarian): > 100 µM | TGI (MALME-3M melanoma): > 100 µM | TGI (KM12 colon): > 100 µM | TGI (NCI-H23 lung): > 100 µM

CC1(C)CCCC2(C)C3=C(CCC12)C(=O)OC3 (stereo not given)
TGI (OVCAR-4 ovarian): > 100 µM | TGI (RXF 393 renal): > 100 µM | TGI (TK-10 renal): > 100 µM | TGI (IGROV1 ovarian): > 100 µM | TGI (MALME-3M melanoma): > 100 µM | TGI (HOP-62 NSCLC): > 100 µM | TGI (HL-60(TB) leukemia): 67.9 µM | TGI (KM12 colon): > 100 µM | TGI (NCI-H23 lung): > 100 µM

COC(=O)C12OCC34C(CC5C(C)C6=CC(=O)OC6=CC5(C)C3C(O)C1O)OC(=O)C(OC(C)=O)C24 (stereo not given)
TGI (SNB-19 CNS): > 91 µM | TGI (OVCAR-4 ovarian): 41.2 µM | TGI (RXF 393 renal): 29 µM | TGI (TK-10 renal): 31.4 µM | TGI (IGROV1 ovarian): 65.1 µM | TGI (MALME-3M melanoma): 21.9 µM | TGI (HOP-62 NSCLC): 53.2 µM | TGI (HL-60(TB) leukemia): 33.3 µM | TGI (KM12 colon): 32.6 µM | TGI (NCI-H23 lung): 32.5 µM

O=C(Nc1ccc(-n2ccc3c(NC(=O)c4ccccc4)ncnc32)cc1)Nc1ccc(Cl)c(C(F)(F)F)c1
GI50 (SNB-19 CNS): 2.43 µM | TGI (SNB-19 CNS): 7.18 µM | GI50 (OVCAR-4 ovarian): 1.57 µM | TGI (OVCAR-4 ovarian): 3.48 µM | GI50 (RXF 393 renal): 1.5 µM | TGI (RXF 393 renal): 3.28 µM | GI50 (TK-10 renal): 1.8 µM | TGI (TK-10 renal): 4.95 µM | GI50 (IGROV1 ovarian): 1.77 µM | TGI (IGROV1 ovarian): 3.91 µM | GI50 (MALME-3M melanoma): 1.94 µM | TGI (MALME-3M melanoma): 4.54 µM | GI50 (HOP-62 NSCLC): 2.16 µM | TGI (HOP-62 NSCLC): 4.45 µM | GI50 (HL-60(TB) leukemia): 2.92 µM | TGI (HL-60(TB) leukemia): 6.93 µM | GI50 (KM12 colon): 1.62 µM | TGI (KM12 colon): 3.79 µM | GI50 (NCI-H23 lung): 2.19 µM | TGI (NCI-H23 lung): 5.28 µM
